From patent US6610483B1, “Methods for identifying cellular responses attributable to signaling molecule inhibition and inhibitors thereof” (priority 1999, dated 2003)

Key:
[1] = tested on: mutant CDC28 F88G cells; assay: DNA chip array of gene transcripts in mutant CDC28 F88G yeast cells exposed to the mutant inhibitor; format: cell-based; conditions: 500 nM
Method: Yeast cells expressing a functionally silent, mutant form of the wild-type protein kinase CDC28, termed CDC28 F88G, were prepared by the methods of standard yeast genetics as described in “Guide to Yeast Genetics and Molecular Biology” (Methods in Enzymology, Vol.194) by Christine Guthrie, Gerald R. Fink (Editor) Vol 194 (February 1991) Academic Press. A selective inhibitor of the mutant kinase, with little effect on the wild-type kinase, was prepared and identified using the methods described in Application Serial No. 60/115,340. Using DNA chip array technology, the levels of 6100 gene transcripts were quantitated in mRNA isolated from yeast cells expressing either wild type or F88G (mutant) CDC28 protein kinase either untreated or treated for treated for 30 minutes or 120 minutes with 500 nanomolar (nM) 4-amino-1-(tert-butyl)-3-(1′-naphthylmethyl)pyrazolo[3,4-d]pyrimidine dissolved in DMSO (500) or simply DMSO (DMSO). A change is defined as 2 fold increase or decrease in a gene transcript that is present or absent only in a particular sample. Methods for measuring transcripts were those described in Wodicka L, Dong H, Mittmann M, Ho M H, Lockhart D J, Genome-wide expression monitoring in Saccharomyces cerevisiae, Nat. Biotechnol. (1997) 15:1359-67. The results and comparisons among the gene transcripts are shown in FIGS. 1-4, with the identities of the particular gene transcripts listed in FIG. 5. Non-specific drug effects are the result of the exposure of the inhibitor to wild-type cells. The mutation effects are indicated by the alterations between the expression pattern between the mutant cells and the wild-type cells, both in the absence of inhibitor. The results of specific inhibition are shown by the differences between the mutant cells before and after exposure to the inhibitor, including increases and decreases. Effects of the inhibitor were evaluated at 30 and 120 minutes. These two time points were chosen based on the known time interval for yeast cell cycle progression which is about 90 minutes. Thus one time point shorter than the full cell cycle progression time (30 minutes) and one time point longer than […] (120 minutes) were chosen. The comparisons of results are shown in FIGS. 1-4, and the details of the particular transcripts altered in FIG. 5.

[2] = tested on: wild-type yeast cells with CDC28; assay: DNA chip array of gene transcripts in wild-type yeast cells exposed to the mutant inhibitor; format: cell-based; conditions: 500 nM, change of 2 fold or more
Method: Yeast cells expressing a functionally silent, mutant form of the wild-type protein kinase CDC28, termed CDC28 F88G, were prepared by the methods of standard yeast genetics as described in “Guide to Yeast Genetics and Molecular Biology” (Methods in Enzymology, Vol.194) by Christine Guthrie, Gerald R. Fink (Editor) Vol 194 (February 1991) Academic Press. A selective inhibitor of the mutant kinase, with little effect on the wild-type kinase, was prepared and identified using the methods described in Application Serial No. 60/115,340. Using DNA chip array technology, the levels of 6100 gene transcripts were quantitated in mRNA isolated from yeast cells expressing either wild type or F88G (mutant) CDC28 protein kinase either untreated or treated for treated for 30 minutes or 120 minutes with 500 nanomolar (nM) 4-amino-1-(tert-butyl)-3-(1′-naphthylmethyl)pyrazolo[3,4-d]pyrimidine dissolved in DMSO (500) or simply DMSO (DMSO). A change is defined as 2 fold increase or decrease in a gene transcript that is present or absent only in a particular sample. Methods for measuring transcripts were those described in Wodicka L, Dong H, Mittmann M, Ho M H, Lockhart D J, Genome-wide expression monitoring in Saccharomyces cerevisiae, Nat. Biotechnol. (1997) 15:1359-67. […] Effects of the inhibitor were evaluated at 30 and 120 minutes. […]

[3] = tested on: PDGFR; conditions: cited from earlier work

Compound | genes altered ([1]; 30 minute exposure) | genes decreased more than two-fold ([1]; 30 minute exposure) | genes increased more than two-fold ([1]; 30 minute exposure) | genes altered ([1]; 120 minute exposure) | genes decreased ([1]; 120 minute exposure) | genes increased ([1]; 120 minute exposure) | genes altered (non-specific drug effects) ([2]; 30 minute exposure) | genes altered (non-specific drug effects) ([2]; 120 minute exposure) | IC50 [3]
CC(C)(C)n1nc(Cc2cccc3ccccc23)c2c(N)ncnc21 [4-amino-1-(tert-butyl)-3-(1′-naphthylmethyl)pyrazolo[3,4-d]pyrimidine] | 85 genes | 74 genes | 11 genes | 186 genes | 100 genes | 86 genes | 7 genes | 3 genes | 
